Data reported in publication PMC6134994, “Discovery of Potent Disheveled/Dvl Inhibitors Using Virtual Screening Optimized With NMR-Based Docking Performance Index” (Frontiers in Pharmacology, 2018).

Assays:
[1] = target: T1, mZO1-PDZ1 (mouse ZO-1 first PDZ domain) (Mus musculus, UniProt P39447); experiment: NMR chemical shift perturbation (1H-15N HSQC)
T1 construct: gene Tjp1
T1 sequence (P39447 18-110): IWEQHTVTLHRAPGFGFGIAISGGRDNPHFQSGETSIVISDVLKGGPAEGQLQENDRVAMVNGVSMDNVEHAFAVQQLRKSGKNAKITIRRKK

[2] = target: T2, hDvl1-PDZ (human Dvl1 PDZ domain) (Homo sapiens, UniProt O14640, C338A/W339T); experiment: NMR chemical shift perturbation at […] equivalents (averaged normalized shift); type: binding
T2 construct: PDZ domain, residues 246–340
T2 sequence (O14640 246-340 C338A/W339T): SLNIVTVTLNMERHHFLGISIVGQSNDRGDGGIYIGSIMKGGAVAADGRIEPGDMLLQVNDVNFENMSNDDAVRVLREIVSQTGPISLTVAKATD

Compound	NMR chemical shift perturbation (1H-15N HSQC) [1]	Δδave/ppm [2]
O=C(Cc1ccccc1)Nc1cccc(C(=O)Nc2ccccc2C(=O)O)c1 [CalBioChem-322338]	residues surrounding the canonical binding site of mZO1-PDZ1 showed substantial CSP upon CalBioChem-322338	
CC(=O)C(=NNc1cccc(S(=O)(=O)Nc2ccccc2C(=O)O)c1)C(=O)c1ccccc1 [NPL-3009]		0.044 ppm
